Measurements as given in PubChem BioAssay AID248 (DTP/NCI, 2004).
Where “and” joins values, the source holds several entries; their conditions need not be identical. Equal entries are not always repeated. Inconclusive results and toxic doses are left out. Cut-off read from the data, not from the text of the source: active = T/C of 150% or more; inactive = T/C below 125%.

Test system: L1210 leukemia ip in BDF1 mice, survival T/C
Assay: NCI In Vivo Anticancer Drug Screen. Data for tumor model L1210 Leukemia (intraperitoneal) in B6D2F1 (BDF1) mice
Conditions: endpoint: mean survival time, higher = longer survival
Outline: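 Antitumor effect is assessed in tumor-bearing animals. Survival in the compound arm is compared with a vehicle-dosed control arm and expressed as their quotient.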

[1] = dose: 100.0 mg/kg/injection, schedule: Q01DX009 (ip), vehicle: saline with Tween-80
[2] = dose: 200.0 mg/kg/injection, schedule: Q01DX009 (ip), vehicle: saline with Tween-80
[3] = dose: 100.0 mg/kg/injection, schedule: Q01DX001 (ip), vehicle: saline
[4] = dose: 5.0 mg/kg/injection, schedule: Q01DX001 (ip), vehicle: saline
[5] = dose: 10.0 mg/kg/injection, schedule: Q01DX001 (ip), vehicle: saline
[6] = dose: 100.0 mg/kg/injection, schedule: Q04DX002 (ip), vehicle: saline with Tween-80
[7] = dose: 100.0 mg/kg/injection, schedule: Q04DX003 (ip), vehicle: saline with Tween-80
[8] = dose: 200.0 mg/kg/injection, schedule: Q04DX002 (ip), vehicle: saline with Tween-80
[9] = dose: 200.0 mg/kg/injection, schedule: Q04DX003 (ip), vehicle: saline with Tween-80
[10] = dose: 400.0 mg/kg/injection, schedule: Q01DX009 (ip), vehicle: saline with Tween-80
[11] = dose: 400.0 mg/kg/injection, schedule: Q04DX002 (ip), vehicle: saline with Tween-80
[12] = dose: 400.0 mg/kg/injection, schedule: Q04DX003 (ip), vehicle: saline with Tween-80
[13] = dose: 100.0 mg/kg/injection, schedule: Q01DX009 (ip), vehicle: Klucel (hydroxypropylcellulose) (HPC)
[14] = dose: 100.0 mg/kg/injection, schedule: Q04DX003 (ip), vehicle: Klucel (hydroxypropylcellulose) (HPC)
[15] = dose: 200.0 mg/kg/injection, schedule: Q01DX009 (ip), vehicle: Klucel (hydroxypropylcellulose) (HPC)
[16] = dose: 200.0 mg/kg/injection, schedule: Q04DX003 (ip), vehicle: Klucel (hydroxypropylcellulose) (HPC)
[17] = dose: 400.0 mg/kg/injection, schedule: Q01DX009 (ip), vehicle: Klucel (hydroxypropylcellulose) (HPC)
[18] = dose: 400.0 mg/kg/injection, schedule: Q04DX003 (ip), vehicle: Klucel (hydroxypropylcellulose) (HPC)

Measured: T/C

CCOc1ccc(Nc2c3ccccc3nc3ccccc23)cc1
inactive: dose: 12.5 mg/kg/injection, schedule: Q01DX009 (ip), vehicle: saline with Tween-80 102 % of control | dose: 20.0 mg/kg/injection, schedule: Q01DX009 (ip), vehicle: saline with Tween-80 108 % of control | dose: 25.0 mg/kg/injection, schedule: Q01DX009 (ip), vehicle: saline with Tween-80 123 % of control | dose: 30.0 mg/kg/injection, schedule: Q01DX009 (ip), vehicle: saline with Tween-80 110 % of control | dose: 44.0 mg/kg/injection, schedule: Q01DX009 (ip), vehicle: saline with Tween-80 105 % of control | dose: 50.0 mg/kg/injection, schedule: Q01DX009 (ip), vehicle: saline with Tween-80 123 % of control | dose: 66.0 mg/kg/injection, schedule: Q01DX009 (ip), vehicle: saline with Tween-80 111 % of control and 123 % of control | [1] 94 % of control

COc1ccccc1/C=N/N=C(N)N
inactive: dose: 15.5 mg/kg/injection, schedule: Q01DX Z (ip), vehicle: other 97 % of control | dose: 31.0 mg/kg/injection, schedule: Q01DX Z (ip), vehicle: other 96 % of control

Cc1cc(C(=O)O)ccc1Cl
inactive: dose: 100.0 mg/kg/injection, schedule: Q04DX003 (ip), vehicle: other 101 % of control | dose: 200.0 mg/kg/injection, schedule: Q04DX003 (ip), vehicle: other 101 % of control | dose: 400.0 mg/kg/injection, schedule: Q04DX003 (ip), vehicle: other 103 % of control

O=C(O)/C=C/c1ccc(Cl)cc1Cl
inactive: [1] 88 % of control | [2] 87 % of control

Cc1ccccc1/C=N/NC(=O)c1cccc2ccccc12
inactive: [3] 89 % of control | dose: 200.0 mg/kg/injection, schedule: Q01DX001 (ip), vehicle: saline 100 % of control

CC1OC2CC(=O)OC2C2=C1C(=O)c1c(O)c3c(c(O)c1C2=O)C1CC(O)C3(O)C(C)O1 (stereo not given)
inactive: dose: 0.01 mg/kg/injection, schedule: Q01DX Z (ip), vehicle: saline 112 % of control | dose: 0.03 mg/kg/injection, schedule: Q01DX Z (ip), vehicle: saline 98 % of control | dose: 0.05 mg/kg/injection, schedule: Q01DX Z (ip), vehicle: saline 90 % of control | dose: 0.1 mg/kg/injection, schedule: Q01DX Z (ip), vehicle: saline 95 % of control | dose: 0.2 mg/kg/injection, schedule: Q01DX Z (ip), vehicle: saline 95 % of control and 100 % of control | dose: 0.4 mg/kg/injection, schedule: Q01DX Z (ip), vehicle: saline 90 % of control | dose: 0.8 mg/kg/injection, schedule: Q01DX Z (ip), vehicle: saline 89 % of control | dose: 1.6 mg/kg/injection, schedule: Q01DX Z (ip), vehicle: saline 94 % of control | dose: 3.2 mg/kg/injection, schedule: Q01DX Z (ip), vehicle: saline 86 % of control | [4] 102 % of control | dose: 6.4 mg/kg/injection, schedule: Q01DX Z (ip), vehicle: saline 92 % of control | [5] 102 % of control | dose: 12.0 mg/kg/injection, schedule: Q01DX Z (ip), vehicle: saline 92 % of control | dose: 12.8 mg/kg/injection, schedule: Q01DX Z (ip), vehicle: saline 87 % of control | dose: 20.0 mg/kg/injection, schedule: Q01DX001 (ip), vehicle: saline 97 % of control | dose: 40.0 mg/kg/injection, schedule: Q01DX001 (ip), vehicle: saline 97 % of control

COc1ccc(OC)c(NC(=O)c2cc3ccccc3cc2OC(=O)Nc2cc(Cl)ccc2OC)c1
inactive: [1] 94 % of control | [6] 103 % of control and 112 % of control | [7] 103 % of control | [2] 98 % of control and 89 % of control | [8] 97 % of control and 87 % of control | [9] 102 % of control | [10] 102 % of control and 89 % of control | [11] 101 % of control and 91 % of control | [12] 97 % of control

COCn1c(C(=O)c2ccc(OC)cc2)cc2ccccc21
inactive: dose: 100.0 mg/kg/injection, schedule: Q04DX002 (ip), vehicle: Klucel (hydroxypropylcellulose) (HPC) 102 % of control | dose: 200.0 mg/kg/injection, schedule: Q04DX002 (ip), vehicle: Klucel (hydroxypropylcellulose) (HPC) 95 % of control | dose: 400.0 mg/kg/injection, schedule: Q04DX002 (ip), vehicle: Klucel (hydroxypropylcellulose) (HPC) 98 % of control

CCOP(=O)(OCC)Oc1ccc(SC)cc1
inactive: [4] 96 % of control | [5] 98 % of control

Cc1ccc(C)c(NC(=O)N(CCO)C2CCCCC2)c1
inactive: [13] 98 % of control | [14] 104 % of control | [15] 95 % of control | [16] 103 % of control | [17] 90 % of control | [18] 95 % of control

Cc1ccc(CC2=NC(C)(C)CC(C)O2)cc1 (stereo not given)
inactive: dose: 100.0 mg/kg/injection, schedule: Q04DX002 (ip), vehicle: saline 101 % of control | dose: 200.0 mg/kg/injection, schedule: Q04DX002 (ip), vehicle: saline 93 % of control | dose: 400.0 mg/kg/injection, schedule: Q04DX002 (ip), vehicle: saline 106 % of control

C/C(=N\N=C(/C)c1ccc(C)cc1C)c1ccc(C)cc1C
inactive: [6] 98 % of control | [8] 95 % of control | [11] 103 % of control

Cc1ccc(S(=O)(=O)NN=C2CCS(=O)CC2)cc1 (stereo not given)
inactive: [13] 90 % of control | [15] 97 % of control | [17] 94 % of control

Cc1ccc(C)c(NC(=O)Oc2cc(C)c(Cl)cc2C(C)C)c1
inactive: [13] 92 % of control and 102 % of control | [14] 103 % of control | [15] 100 % of control and 87 % of control | [16] 115 % of control | [17] 102 % of control and 90 % of control | [18] 97 % of control

CN(C)C(=O)C1CCC1
inactive: [1] 91 % of control | [7] 103 % of control | [2] 105 % of control | [9] 101 % of control | [10] 100 % of control | [12] 104 % of control

COC(=O)C1CC(C(N)=O)CC1OC(C)=O (stereo not given)
inactive: [13] 100 % of control | [15] 93 % of control | [17] 98 % of control

CC(=O)c1ccc(-c2ccccc2)cc1
inactive: [1] 91 % of control | [2] 93 % of control | [10] 96 % of control

COc1ccc(I)c([N+](=O)[O-])c1
inactive: [13] 96 % of control | [14] 100 % of control | [15] 96 % of control | [16] 94 % of control | [18] 103 % of control

NC1CC2(CCC1=O)c1ccccc1-c1ccccc12 (stereo not given)
inactive: [3] 101 % of control | dose: 400.0 mg/kg/injection, schedule: Q01DX001 (ip), vehicle: saline 104 % of control

C=CC(C)(C)c1c2c(c(O)c3c(=O)c4ccc(O)c(O)c4oc13)C=CC(C)(C)O2
inactive: dose: 100.0 mg/kg/injection, schedule: Q01DX001 (ip), vehicle: carboxymethylcellulose (CMC) 95 % of control | dose: 200.0 mg/kg/injection, schedule: Q01DX001 (ip), vehicle: carboxymethylcellulose (CMC) 92 % of control | dose: 400.0 mg/kg/injection, schedule: Q01DX001 (ip), vehicle: carboxymethylcellulose (CMC) 95 % of control
